Columns and labels:
Haemonchus contortus = experiment: Anthelmintic effect in artificially infected lambs (abomasal nematodes), coproscopy and necropsy; assay type: in vivo; settings: up to 14 days after application
Method: (§1) Die anthelminthische Wirkung vom Elaiophylin wurde an Lämmern mit 30 - 40 kg Körpergewicht untersucht. Dazu wurden die Lämmer artifiziell mit Infektionsstadien von Labmagen- (Haemonchus contortus) und Dünndarm-(Trichostrongylus colubriformis) Nematoden infiziert. Nach Abschluß der Entwicklungszeit (Präpatenzperiode) der Nematoden erfolgte die Applikation von Elaiophylin in Dosierungen von 2,5, 5,0 und 10,0 mg/kg (p.o.) bzw. 2,5 mg/kg (subcutan).
(§2) Durch koproskopische Untersuchungen vor und bis zu 14 Tagen nach der Applikation des Elaiophylins und anschließende Sektion mit helminthologischer Aufarbeitung wurde die prozentuale Reduktion der Schaf-Nematoden ermittelt (s. Tab. 1). Tabelle 1

[1] = tested on: Trichostrongylus colubriformis; experiment: Anthelmintic effect in artificially infected lambs (small intestine nematodes), coproscopy and necropsy; assay type: in vivo; settings: up to 14 days after application
Method: as §1, §2

CC[C@@H]1[C@@H](C)O[C@@](O)([C@@H](C)[C@H](O)[C@H](C)[C@H]2OC(=O)/C=C/C=C/[C@H](C)[C@@H]([C@@H](C)[C@@H](O)[C@H](C)[C@@]3(O)C[C@@H](O[C@H]4C[C@H](O)[C@H](O)[C@H](C)O4)[C@H](CC)[C@@H](C)O3)OC(=O)/C=C/C=C/[C@@H]2C)C[C@H]1O[C@H]1C[C@H](O)[C@H](O)[C@H](C)O1 [Elaiophylin]
proz. Reduktion der Nematoden H. contortus (Haemonchus contortus; lambs 30 - 40 kg, 2,5 mg p.o.): 44,6%
proz. Reduktion der Nematoden H. contortus (Haemonchus contortus; lambs 30 - 40 kg, 2,5 mg s.c.): 46,5%
proz. Reduktion der Nematoden H. contortus (Haemonchus contortus; lambs 30 - 40 kg, 5,0 mg p.o.): 89,3%
proz. Reduktion der Nematoden H. contortus (Haemonchus contortus; lambs 30 - 40 kg, 10,0 mg p.o.): 85,0%
proz. Reduktion der Nematoden T. colubriformis ([1]; lambs 30 - 40 kg, 2,5 mg p.o.): 28,4%
proz. Reduktion der Nematoden T. colubriformis ([1]; lambs 30 - 40 kg, 2,5 mg s.c.): 35,1%
proz. Reduktion der Nematoden T. colubriformis ([1]; lambs 30 - 40 kg, 5,0 mg p.o.): 73,8%
proz. Reduktion der Nematoden T. colubriformis ([1]; lambs 30 - 40 kg, 10,0 mg p.o.): 73,8%
